The experiment has as its system PMA-induced release of TNFα from U-937 cells. The experiment is described as follows: ELISA-based TNFα release assay, PMA-stimulated U-937 cells. The experiment is classed as cell-based. Particulars: Homo sapiens, U-937, 1 h, Batimastat 10 μM, PMA 25 ng/ml. How it is done: In contrast to Example 14 and 17, where the inhibitory effects of the antibodies of the present disclosure on LPS-induced release of endogenous TNFα from human THP-1 cells were tested, this analysis was conducted with recombinantly produced murine antibodies of the present disclosure to verify their inhibitory effects on PMA-induced release of endogenous TNFα from human monocytic U-937 cells.
In brief, on day 1, Nunc black MaxiSorp® 96-well plates (Thermo Fisher Scientific, USA) were coated overnight with 100 μl per well of mouse anti-human TNFα capture antibody (provided as part of the DuoSet ELISA kit) at 4 μg/ml TBS at 4° C. On day 2, the capture antibody solution was removed and MaxiSorp® plates were blocked with 300 μl per well of TBS, 1% BSA at room temperature for 1-2 hours. […] Using an infinite M1000 (Tecan Group, Switzerland) microplate reader, the fluorescence of each well was collected at an excitation wavelength of 435 nm and an emission wavelength of 555 nm. […]

What is called inhibition is the drop in the measured response relative to a control, in per cent.

Regarding `CNC(=O)[C@H](Cc1ccccc1)NC(=O)[C@H](CC(C)C)[C@H](CSc1cccs1)C(=O)NO` [Batimastat], the inhibition at 10 µM reads like this: (murine (m) and chimeric (ch) antibodies 3 μg/ml) 98.7%; (recombinant murine antibodies 1 μg/ml) 100%.

For the origin of these results see patent US20240174744A1, “METHODS OF TREATMENT USING PROTEIN BINDERS TO IRHOM2 EPITOPES” (SCIRHOM GMBH, priority 2021, published 2024).
